Data from patent US11377427B2, “Triazoles for regulating intracellular calcium homeostasis” (UNIVERSIDAD DEL PAIS VASCO, priority 2016, dated 2022).

How the values were obtained:
[1] = system: human control myotubes LHCN-M2; assay: In vitro toxicity in human myotubes, CytoTox 96 colorimetric assay; format: cell-based; settings: concentrations between 10 nM and 2 mM; 24 hours of incubation; FIG. 1
Experimental: These assays were carried out in human control myotubes LHCN-M2 after 14 days in differentiation medium. To determine the toxicity of the different analyzed compounds, particularly AHK1 and AHK2 according to the invention, these compounds were added to the culture medium for 24 hours at 37° C. at different concentrations (0-2 mM). For comparison purposes, the same assay was performed by adding reference compound S-107. Cell viability was determined by means of Cytotox 96 (Promega) colorimetric assay following instructions in the manual.

[2] = system: fibers isolated from mouse flexor digitorum brevis muscle (dystrophic MDX fibers); assay: Baseline intracellular calcium levels in mouse muscle fibers (Fura 2-AM); format: cell-based; settings: 150 nM, overnight treatment; FIG. 2
Experimental: Fibers isolated from mouse flexor digitorum brevis muscle were cultured overnight in the presence or absence of compounds AHK1 and AHK2 at a concentration of 150 nM. Baseline intracellular calcium levels were evaluated by means of incubating the fibers with Fura 2-AM ratiometric fluorochrome (4 μM) and pluronic acid (0.02%) for 30 minutes at 37° C., in the culture medium. The fibers were viewed with a high-resolution digital camera and intracellular [Ca^2+] was estimated by means of a 340 nm/380 nm excitation ratio.

[3] = target: T1, RyR1-calstabin1 interaction (Homo sapiens, UniProt P21817+P62942); assay: RyR1-calstabin1 interaction by in situ PLA in human myotubes under SIN1 nitro-oxidative stress; format: cell-based; settings: pre-treated 12 hours at 150 nM; SIN1 5 mM 30 minutes; FIG. 3
T1 construct: endogenous in cells; host or cells: LHCN-M2 human myotubes (differentiated for 9 days)
Experimental: This assay was carried out in human control myotubes LHCN-M2 after 9 days in differentiation medium. Said myotubes were pre-treated for 12 hours with compounds AHK1 and AHK2 at a concentration of 150 nM. After treatment, the myotubes were subjected to peroxynitrite-induced nitro-oxidative stress by means of the addition of SIN1 (5 mM) for 30 minutes. RyR1-calstabin colocalization was analyzed by means of the in situ proximity ligation technique (in situ PLA) for which Sigma's Duolink II Network Fluorescence Kit and RyR1- and calstabin 1-specific antibodies were used. This technique allows detecting the exact location of two antigens located at a distance less than 40 nm from one another. To determine RyR1-calstabin-1 colocalization, 3 photographs were quantified for each condition with about 9 myotubes per field, using Image J computer software (http://rsb.info.nih.gov/ij/download.html). The colocalization area in each image was normalized to the myosin expression area, which was determined by means of immunofluorescence with a fluorescein-conjugated specific antibody.

[4] = system: mdx mice; assay: Grip strength of dystrophic mdx mice; format: in vivo, mouse; settings: 0.25 mg/mL in drinking water, one-month old mdx mice
Experimental: One-month old male dystrophic mdx mice supplied by Jackson Laboratory (https://www.jax.org/strain/001801) were used. The biological assays for measuring the effect of the Ahulken (AHK) compounds on muscle function were performed with one-month old mice, whereas the in vivo assays for determining the effect on the heart and CNS were performed with four-month old mice. The one-month old mice were treated with compound AHK1 or compound AHK2 for 5 weeks, where said compounds were administered in drinking water at a concentration of 0.25 mg/mL. The muscle strength of the front paws was measured every week using a grip strength meter and the obtained value was normalized by the body weight of the animal. To that end, the indications described in the TREAT-NMD Neuromuscular Network protocol (http://www.treat-nmd.eu/downloads/file/sops/dmd/MDX/DMD_M.2.2.001.pdf) were followed.

[5] = system: mdx mice; assay: Muscle degeneration/regeneration: percentage of central nuclei in muscle cryosections of mdx mice; format: in vivo, mouse; settings: 5-week treatment of mdx mice; 0.25 mg/mL in drinking water; FIG. 5
Experimental: After concluding the 5-week treatment, the tibialis anterior muscle was obtained and processed for subsequent biochemical and immunohistological analysis to determine the degree of muscle damage. Cell-death derived regeneration was determined in muscle cryosections by means of quantifying the percentage of central nuclei using standard immunofluorescence techniques for detecting collagen IV and cell nuclei.

[6] = system: tibialis anterior muscle of mdx mice; assay: Gene expression pattern of tibialis anterior muscle of mdx mice (RT Profiler PCR Array); format: in vivo, mouse
Experimental: In turn, the biochemical analysis of the tibialis anterior muscle was performed by means of RNA extraction and expression pattern analysis in control mice, mdx mice and mice subjected to different treatments. To that end, the […] skeletal muscle, myogenesis and myopathy RT Profiler PCR Array (PAHS-099Z, QIAGEN) was used, using cDNA mixtures of at least 3 mice per group. The expression profile of 84 genes involved in physiopathological mechanisms of the skeletal muscle was thus analyzed. The experiments were conducted in 7300 Real-Time PCR equipment (Applied Biosystems) and the results obtained were analyzed using QIAGEN online software (http://www.sabiosciences.com/dataanalysis.php).

T1 sequence (P21817 whole entry): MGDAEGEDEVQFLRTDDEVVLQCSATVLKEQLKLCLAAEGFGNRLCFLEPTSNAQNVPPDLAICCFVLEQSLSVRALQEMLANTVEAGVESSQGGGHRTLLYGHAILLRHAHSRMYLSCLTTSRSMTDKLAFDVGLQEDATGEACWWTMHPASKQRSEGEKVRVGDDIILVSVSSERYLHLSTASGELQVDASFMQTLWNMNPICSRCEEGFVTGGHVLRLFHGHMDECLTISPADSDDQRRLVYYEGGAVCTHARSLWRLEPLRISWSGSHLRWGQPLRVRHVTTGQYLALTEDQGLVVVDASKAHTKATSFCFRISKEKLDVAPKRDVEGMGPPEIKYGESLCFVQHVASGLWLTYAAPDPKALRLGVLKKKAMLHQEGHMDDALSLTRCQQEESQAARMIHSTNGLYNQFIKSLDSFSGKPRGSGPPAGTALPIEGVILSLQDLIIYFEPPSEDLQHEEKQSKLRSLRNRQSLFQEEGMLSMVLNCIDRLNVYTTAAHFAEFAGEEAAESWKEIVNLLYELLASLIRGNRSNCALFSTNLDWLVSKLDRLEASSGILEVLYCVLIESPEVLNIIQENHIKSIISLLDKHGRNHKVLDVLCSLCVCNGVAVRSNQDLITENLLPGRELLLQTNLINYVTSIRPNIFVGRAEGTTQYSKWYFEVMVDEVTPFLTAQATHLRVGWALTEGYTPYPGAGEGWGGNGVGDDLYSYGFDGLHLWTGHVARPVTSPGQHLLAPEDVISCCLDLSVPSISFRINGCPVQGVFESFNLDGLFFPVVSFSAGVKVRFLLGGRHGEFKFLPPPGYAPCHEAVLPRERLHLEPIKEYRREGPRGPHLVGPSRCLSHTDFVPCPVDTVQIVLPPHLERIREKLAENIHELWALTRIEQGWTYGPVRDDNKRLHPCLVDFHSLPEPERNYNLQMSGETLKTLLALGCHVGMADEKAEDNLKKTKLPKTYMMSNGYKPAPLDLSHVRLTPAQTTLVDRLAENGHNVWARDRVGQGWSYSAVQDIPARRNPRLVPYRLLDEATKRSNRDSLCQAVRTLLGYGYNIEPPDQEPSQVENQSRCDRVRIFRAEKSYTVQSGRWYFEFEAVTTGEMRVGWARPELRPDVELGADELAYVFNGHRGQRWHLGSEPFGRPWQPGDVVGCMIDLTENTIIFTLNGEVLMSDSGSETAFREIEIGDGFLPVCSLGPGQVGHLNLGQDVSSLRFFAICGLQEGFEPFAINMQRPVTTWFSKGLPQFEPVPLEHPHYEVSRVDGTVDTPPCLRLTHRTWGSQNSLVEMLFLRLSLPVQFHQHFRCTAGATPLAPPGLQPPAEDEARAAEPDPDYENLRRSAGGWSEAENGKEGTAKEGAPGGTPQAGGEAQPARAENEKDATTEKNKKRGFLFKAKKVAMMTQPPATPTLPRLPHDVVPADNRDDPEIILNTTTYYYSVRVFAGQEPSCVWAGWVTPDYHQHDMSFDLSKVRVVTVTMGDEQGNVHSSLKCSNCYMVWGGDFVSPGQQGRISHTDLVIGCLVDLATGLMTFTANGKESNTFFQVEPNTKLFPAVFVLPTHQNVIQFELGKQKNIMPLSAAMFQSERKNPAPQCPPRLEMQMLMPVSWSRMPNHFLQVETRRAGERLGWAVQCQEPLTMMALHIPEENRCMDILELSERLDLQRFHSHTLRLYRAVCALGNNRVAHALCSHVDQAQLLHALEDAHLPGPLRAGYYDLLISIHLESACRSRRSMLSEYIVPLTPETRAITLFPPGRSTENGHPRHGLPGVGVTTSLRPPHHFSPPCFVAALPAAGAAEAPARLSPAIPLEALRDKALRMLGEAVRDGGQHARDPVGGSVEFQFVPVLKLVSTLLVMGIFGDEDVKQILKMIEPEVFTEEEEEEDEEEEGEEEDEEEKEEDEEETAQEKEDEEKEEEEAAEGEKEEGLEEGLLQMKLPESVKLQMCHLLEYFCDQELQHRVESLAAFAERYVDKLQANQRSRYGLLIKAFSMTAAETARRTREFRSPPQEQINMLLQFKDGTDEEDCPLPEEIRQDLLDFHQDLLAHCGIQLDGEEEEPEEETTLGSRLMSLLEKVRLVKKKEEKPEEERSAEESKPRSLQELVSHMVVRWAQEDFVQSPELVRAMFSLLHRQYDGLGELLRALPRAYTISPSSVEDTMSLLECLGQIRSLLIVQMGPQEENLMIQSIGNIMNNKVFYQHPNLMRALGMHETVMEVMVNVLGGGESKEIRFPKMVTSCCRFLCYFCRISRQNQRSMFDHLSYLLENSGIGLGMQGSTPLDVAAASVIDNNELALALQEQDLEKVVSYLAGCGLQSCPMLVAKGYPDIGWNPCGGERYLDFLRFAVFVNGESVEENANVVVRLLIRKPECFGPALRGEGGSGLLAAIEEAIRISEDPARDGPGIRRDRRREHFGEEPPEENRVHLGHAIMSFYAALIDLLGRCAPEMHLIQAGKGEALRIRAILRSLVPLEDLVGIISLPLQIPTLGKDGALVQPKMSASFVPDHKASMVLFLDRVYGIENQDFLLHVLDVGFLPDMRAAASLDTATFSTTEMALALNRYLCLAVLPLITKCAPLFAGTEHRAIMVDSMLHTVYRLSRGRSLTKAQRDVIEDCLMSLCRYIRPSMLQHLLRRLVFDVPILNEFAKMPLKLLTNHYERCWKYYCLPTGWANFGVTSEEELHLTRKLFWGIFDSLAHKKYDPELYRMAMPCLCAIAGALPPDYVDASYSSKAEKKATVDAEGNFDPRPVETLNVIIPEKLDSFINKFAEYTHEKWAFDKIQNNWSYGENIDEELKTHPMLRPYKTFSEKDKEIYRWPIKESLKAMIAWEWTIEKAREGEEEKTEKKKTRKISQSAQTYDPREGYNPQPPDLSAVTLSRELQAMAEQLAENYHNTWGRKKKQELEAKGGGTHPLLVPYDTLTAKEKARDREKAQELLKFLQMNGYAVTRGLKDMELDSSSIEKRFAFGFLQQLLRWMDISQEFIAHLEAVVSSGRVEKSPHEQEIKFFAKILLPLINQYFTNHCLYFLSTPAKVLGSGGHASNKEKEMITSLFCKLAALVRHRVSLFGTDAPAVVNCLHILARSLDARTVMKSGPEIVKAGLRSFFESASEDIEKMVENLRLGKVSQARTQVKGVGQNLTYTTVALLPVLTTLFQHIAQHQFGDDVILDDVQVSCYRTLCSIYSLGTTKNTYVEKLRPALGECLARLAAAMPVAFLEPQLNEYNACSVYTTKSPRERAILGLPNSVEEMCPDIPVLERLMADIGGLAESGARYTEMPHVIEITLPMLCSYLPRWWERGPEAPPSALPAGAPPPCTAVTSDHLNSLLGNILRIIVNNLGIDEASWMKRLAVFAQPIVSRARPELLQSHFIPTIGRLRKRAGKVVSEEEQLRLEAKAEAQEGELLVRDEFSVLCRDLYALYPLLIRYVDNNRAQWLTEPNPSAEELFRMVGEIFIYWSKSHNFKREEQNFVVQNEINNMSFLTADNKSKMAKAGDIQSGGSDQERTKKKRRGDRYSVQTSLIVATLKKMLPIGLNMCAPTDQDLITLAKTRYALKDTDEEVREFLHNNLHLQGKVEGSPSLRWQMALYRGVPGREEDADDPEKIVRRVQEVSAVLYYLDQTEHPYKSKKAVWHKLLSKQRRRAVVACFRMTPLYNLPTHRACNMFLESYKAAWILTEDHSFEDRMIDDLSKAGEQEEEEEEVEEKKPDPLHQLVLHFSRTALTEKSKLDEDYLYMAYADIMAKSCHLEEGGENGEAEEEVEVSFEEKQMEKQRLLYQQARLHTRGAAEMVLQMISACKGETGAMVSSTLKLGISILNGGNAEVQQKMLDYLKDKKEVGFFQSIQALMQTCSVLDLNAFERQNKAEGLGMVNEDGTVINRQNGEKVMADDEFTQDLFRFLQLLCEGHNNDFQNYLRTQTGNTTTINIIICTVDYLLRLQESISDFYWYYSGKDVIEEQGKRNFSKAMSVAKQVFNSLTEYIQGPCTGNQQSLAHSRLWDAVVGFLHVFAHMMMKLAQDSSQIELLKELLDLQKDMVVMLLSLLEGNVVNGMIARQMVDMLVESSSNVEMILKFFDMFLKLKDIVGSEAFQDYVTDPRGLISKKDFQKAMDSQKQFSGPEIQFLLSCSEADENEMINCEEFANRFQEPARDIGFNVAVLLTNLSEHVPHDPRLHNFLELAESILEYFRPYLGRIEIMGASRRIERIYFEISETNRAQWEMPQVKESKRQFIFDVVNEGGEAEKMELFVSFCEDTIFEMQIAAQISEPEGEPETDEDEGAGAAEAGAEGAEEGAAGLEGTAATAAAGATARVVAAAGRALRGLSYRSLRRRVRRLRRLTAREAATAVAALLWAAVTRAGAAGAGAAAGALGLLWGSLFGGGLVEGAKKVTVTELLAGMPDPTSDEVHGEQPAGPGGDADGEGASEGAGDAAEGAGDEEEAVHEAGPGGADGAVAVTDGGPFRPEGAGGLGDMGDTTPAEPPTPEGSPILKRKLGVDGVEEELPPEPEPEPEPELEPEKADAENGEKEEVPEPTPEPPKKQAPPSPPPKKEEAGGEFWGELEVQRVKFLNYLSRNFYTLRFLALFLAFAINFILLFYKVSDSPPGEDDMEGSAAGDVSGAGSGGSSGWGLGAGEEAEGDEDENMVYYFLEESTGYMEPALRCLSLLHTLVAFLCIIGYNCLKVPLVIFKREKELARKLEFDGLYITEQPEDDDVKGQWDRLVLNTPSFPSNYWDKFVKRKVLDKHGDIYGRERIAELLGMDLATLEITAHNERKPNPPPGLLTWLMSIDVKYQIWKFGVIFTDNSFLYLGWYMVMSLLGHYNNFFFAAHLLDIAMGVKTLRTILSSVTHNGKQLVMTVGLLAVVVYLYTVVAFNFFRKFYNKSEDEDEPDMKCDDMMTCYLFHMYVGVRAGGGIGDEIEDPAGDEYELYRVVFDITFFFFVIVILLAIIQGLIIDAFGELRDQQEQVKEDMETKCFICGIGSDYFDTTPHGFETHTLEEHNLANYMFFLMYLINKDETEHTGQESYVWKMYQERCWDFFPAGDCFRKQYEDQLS
T1 sequence (P62942 2-108 limits assumed): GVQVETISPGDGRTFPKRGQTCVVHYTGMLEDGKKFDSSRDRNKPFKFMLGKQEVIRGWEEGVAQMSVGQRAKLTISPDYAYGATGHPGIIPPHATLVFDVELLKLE

SMILES: COc1cccc(SCc2cn(CC(=O)O)nn2)c1 [AHK1, 1-carboxymethyl-4-[3-(methoxy)phenylthiomethyl]-1H-1,2,3-triazole]
- in vitro acute toxicity against human myotubes [1]: do not show in vitro acute toxicity
- intracellular calcium levels at rest in MDX fibers [2]: brought intracellular calcium levels back to the control levels
- dissociation of the RyR1-Calst1 complex in the presence of SIN1 [3]: partially prevented
- grip strength compared to untreated littermates ([4]; after 2 weeks of treatment): increased significantly
- increase of muscle strength ([4]; after 5 weeks of treatment, FIG. 4): 20%
- percentage of central nuclei [5]: significantly reduced
- Ratio of change vs. control, Akt1 ([6]; gene Akt1, MDX + AHK1, 5 weeks, tibialis anterior, untreated MDX 2.63): 1.42
- Ratio of change vs. control, Bcl2 ([6]; gene Bcl2, MDX + AHK1, 5 weeks, tibialis anterior, untreated MDX 1.94): 1.05
- Ratio of change vs. control, Bmp4 ([6]; gene Bmp4, MDX + AHK1, 5 weeks, tibialis anterior, untreated MDX 1.93): 2.08
- Ratio of change vs. control, Capn2 ([6]; gene Capn2, MDX + AHK1, 5 weeks, tibialis anterior, untreated MDX 2.90): 1.75
- Ratio of change vs. control, Casp3 ([6]; gene Casp3, MDX + AHK1, 5 weeks, tibialis anterior, untreated MDX 10.28): 5.27
- Ratio of change vs. control, Cast ([6]; gene Cast, MDX + AHK1, 5 weeks, tibialis anterior, untreated MDX 1.86): 1.49
- Ratio of change vs. control, Cav3 ([6]; gene Cav3, MDX + AHK1, 5 weeks, tibialis anterior, untreated MDX 3.28): 1.68
- Ratio of change vs. control, Cryab ([6]; gene Cryab, MDX + AHK1, 5 weeks, tibialis anterior, untreated MDX 3.08): 1.50
- Ratio of change vs. control, Ctnnb1 ([6]; gene Ctnnb1, MDX + AHK1, 5 weeks, tibialis anterior, untreated MDX 1.79): 1.27
- Ratio of change vs. control, Dag1 ([6]; gene Dag1, MDX + AHK1, 5 weeks, tibialis anterior, untreated MDX 2.27): 1.23
- Ratio of change vs. control, Des ([6]; gene Des, MDX + AHK1, 5 weeks, tibialis anterior, untreated MDX 2.14): 1.53
- Ratio of change vs. control, Dysf ([6]; gene Dysf, MDX + AHK1, 5 weeks, tibialis anterior, untreated MDX 2.15): 1.28
- Ratio of change vs. control, Foxo3 ([6]; gene Foxo3, MDX + AHK1, 5 weeks, tibialis anterior, untreated MDX 1.76): 1.14
- Ratio of change vs. control, Igf1 ([6]; gene Igf1, MDX + AHK1, 5 weeks, tibialis anterior, untreated MDX 2.87): 2.07
- Ratio of change vs. control, Igf2 ([6]; gene Igf2, MDX + AHK1, 5 weeks, tibialis anterior, untreated MDX 22.31): 9.78
- Ratio of change vs. control, Igfbp3 ([6]; gene Igfbp3, MDX + AHK1, 5 weeks, tibialis anterior, untreated MDX 1.77): 1.34
- Ratio of change vs. control, Igfbp5 ([6]; gene Igfbp5, MDX + AHK1, 5 weeks, tibialis anterior, untreated MDX 2.52): 1.43
- Ratio of change vs. control, Ikbkb ([6]; gene Ikbkb, MDX + AHK1, 5 weeks, tibialis anterior, untreated MDX 2.72): 1.62
- Ratio of change vs. control, Il1b ([6]; gene Il1b, MDX + AHK1, 5 weeks, tibialis anterior, untreated MDX 17.77): 2.82
- Ratio of change vs. control, Il6 ([6]; gene Il6, MDX + AHK1, 5 weeks, tibialis anterior, untreated MDX 32.72): 9.76
- Ratio of change vs. control, Lmna ([6]; gene Lmna, MDX + AHK1, 5 weeks, tibialis anterior, untreated MDX 5.29): 2.52
- Ratio of change vs. control, Mapk3 ([6]; gene Mapk3, MDX + AHK1, 5 weeks, tibialis anterior, untreated MDX 2.61): 1.69
- Ratio of change vs. control, Mmp9 ([6]; gene Mmp9, MDX + AHK1, 5 weeks, tibialis anterior, untreated MDX 4.51): 2.01
- Ratio of change vs. control, Musk ([6]; gene Musk, MDX + AHK1, 5 weeks, tibialis anterior, untreated MDX 3.51): 2.00
- Ratio of change vs. control, Myf5 ([6]; gene Myf5, MDX + AHK1, 5 weeks, tibialis anterior, untreated MDX 3.40): 2.13
- Ratio of change vs. control, Myod1 ([6]; gene Myod1, MDX + AHK1, 5 weeks, tibialis anterior, untreated MDX 4.27): 1.28
- Ratio of change vs. control, Myog ([6]; gene Myog, MDX + AHK1, 5 weeks, tibialis anterior, untreated MDX 17.36): 3.24
- Ratio of change vs. control, Nfkb1 ([6]; gene Nfkb1, MDX + AHK1, 5 weeks, tibialis anterior, untreated MDX 2.45): 1.67
- Ratio of change vs. control, Pax3 ([6]; gene Pax3, MDX + AHK1, 5 weeks, tibialis anterior, untreated MDX 2.16): 2.48
- Ratio of change vs. control, Pax7 ([6]; gene Pax7, MDX + AHK1, 5 weeks, tibialis anterior, untreated MDX 3.82): 2.55
- Ratio of change vs. control, Ppargc1b ([6]; gene Ppargc1b, MDX + AHK1, 5 weeks, tibialis anterior, untreated MDX 1.77): 1.23
- Ratio of change vs. control, Prkaa1 ([6]; gene Prkaa1, MDX + AHK1, 5 weeks, tibialis anterior, untreated MDX 2.33): 1.55
- Ratio of change vs. control, Prkag3 ([6]; gene Prkag3, MDX + AHK1, 5 weeks, tibialis anterior, untreated MDX 2.52): 2.68
- Ratio of change vs. control, Rhoa ([6]; gene Rhoa, MDX + AHK1, 5 weeks, tibialis anterior, untreated MDX 2.30): 1.80
- Ratio of change vs. control, Rps6kb1 ([6]; gene Rps6kb1, MDX + AHK1, 5 weeks, tibialis anterior, untreated MDX 1.77): 1.25
- Ratio of change vs. control, Tgfb1 ([6]; gene Tgfb1, MDX + AHK1, 5 weeks, tibialis anterior, untreated MDX 6.51): 3.61
- Ratio of change vs. control, Tnf ([6]; gene Tnf, MDX + AHK1, 5 weeks, tibialis anterior, untreated MDX 15.01): 10.27
- Ratio of change vs. control, Tnnc1 ([6]; gene Tnnc1, MDX + AHK1, 5 weeks, tibialis anterior, untreated MDX 25.00): 4.53
- Ratio of change vs. control, Tnnt1 ([6]; gene Tnnt1, MDX + AHK1, 5 weeks, tibialis anterior, untreated MDX 12.09): 3.37
- Ratio of change vs. control, Utrn ([6]; gene Utrn, MDX + AHK1, 5 weeks, tibialis anterior, untreated MDX 2.03): 1.35
- number of genes the expression of which was increased with respect to control (at least 1.75-fold) ([6]; mdx mice treated 5 weeks, 84 genes analyzed, 40 in untreated mdx): 20
